According to ChEMBL document CHEMBL1149609, “Synthesis and evaluation of human T cell stimulating activity of an alpha-sulfatide analogue” (Bioorg Med Chem, 2007):
Active and inactive are the calls of the source. The calls are words filed in the database; no cut-off is given here.

Key:
Assay type in all cases: functional
Homo sapiens [1] = species on record: Homo sapiens; experiment: Stimulation of CD1d-restricted iNKTcell clone BGA01 assessed as IL4 release after 48 hrs by ELISA
Homo sapiens [2] = species on record: Homo sapiens; experiment: Stimulation of sulfatide-specific CD1a-restricted Tcell clone K34B9.1 assessed as IL4 release after 48 hrs by ELISA
Homo sapiens [3] = species on record: Homo sapiens; experiment: Stimulation of CD1d-restricted iNKTcell clone BGA89 assessed as IL4 release after 48 hrs by ELISA
Homo sapiens [4] = species on record: Homo sapiens; experiment: Stimulation of sulfatide-specific CD1a-restricted Tcell clone K34B9.1 assessed as gammaIFN release after 48 hrs by ELISA
Homo sapiens [5] = species on record: Homo sapiens; experiment: Stimulation of CD1d-restricted iNKTcell clone BGA01 assessed as gammaIFN release after 48 hrs by ELISA
Homo sapiens [6] = species on record: Homo sapiens; experiment: Stimulation of CD1d-restricted iNKTcell clone BGA89 assessed as gammaIFN release after 48 hrs by ELISA

## CCCCCCCCCCCCC/C=C/[C@@H](O)[C@H](CO[C@H]1O[C@H](CO)[C@H](O)[C@H](OS(=O)(=O)O)[C@H]1O)NC(=O)CCCCCCCCCCCCCCCCCCCCC
Homo sapiens [1]
  Activity: Active
Homo sapiens [2]
  Activity: inactive
Homo sapiens [3]
  Activity: Active
Homo sapiens [4]
  Activity: inactive
Homo sapiens [5]
  Activity: Active
Homo sapiens [6]
  Activity: Active
